*1 amine or outer side, *2 acyl side, *3 side chain or, on linkers, in order; H or OH if unused. Where a SMILES comes first, the peptide text is derived from it. Side-chain parts run from the residue outwards. [ ]: non-standard residue; d: D form. The star is where a group is joined. γGlu = O=C(O)[C@H](CCC(=O)[*:2])N[*:1]; Palmitoyl = CCCCCCCCCCCCCCCC(=O)*; hSer = N[C@@H](CCO)C(=O)O; Orn = NCCC[C@H](N)C(=O)O; Dab = NCC[C@H](N)C(=O)O; Aib = CC(C)(N)C(=O)O
Tests used:
Format in all cases: cell-based
glucagon receptor = biological target: T1, glucagon receptor (Homo sapiens, UniProt P47871); experiment: cAMP induction, firefly luciferase-based reporter assay in HEK293 cells co-transfected with glucagon receptor; conditions: Table 3, analogs of SEQ ID NO: 18 varying at position 3; for EC50: EC50 at Glucagon Receptor
T1 construct: expressed in transfected cells; host or cells: HEK293
T1 sequence (P47871 26-477): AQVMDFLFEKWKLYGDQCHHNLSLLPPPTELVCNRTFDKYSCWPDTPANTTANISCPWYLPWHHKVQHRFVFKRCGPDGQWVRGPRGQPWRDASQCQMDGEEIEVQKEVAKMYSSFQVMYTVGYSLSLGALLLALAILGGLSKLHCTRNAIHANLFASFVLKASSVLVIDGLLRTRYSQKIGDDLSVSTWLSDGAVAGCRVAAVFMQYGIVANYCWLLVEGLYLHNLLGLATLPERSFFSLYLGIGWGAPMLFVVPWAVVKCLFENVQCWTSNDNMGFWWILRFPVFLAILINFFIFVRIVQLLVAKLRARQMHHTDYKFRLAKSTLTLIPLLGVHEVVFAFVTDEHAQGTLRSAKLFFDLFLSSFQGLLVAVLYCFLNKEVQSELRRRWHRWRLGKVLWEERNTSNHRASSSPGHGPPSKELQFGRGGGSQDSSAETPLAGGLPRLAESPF
Text: (§1) This example describes an exemplary method of testing the biological activity of the peptides of the present disclosures, which method involves assaying cAMP synthesis.

GLP-1 receptor = biological target: T2, GLP-1 receptor (Homo sapiens, UniProt P43220); experiment: cAMP induction, firefly luciferase-based reporter assay in HEK293 cells co-transfected with GLP-1 receptor; conditions: EC50 at GLP-1 Receptor, Table 3, analogs of SEQ ID NO: 18 varying at position 3
T2 construct: expressed in transfected cells; host or cells: HEK293
T2 sequence (P43220 24-463): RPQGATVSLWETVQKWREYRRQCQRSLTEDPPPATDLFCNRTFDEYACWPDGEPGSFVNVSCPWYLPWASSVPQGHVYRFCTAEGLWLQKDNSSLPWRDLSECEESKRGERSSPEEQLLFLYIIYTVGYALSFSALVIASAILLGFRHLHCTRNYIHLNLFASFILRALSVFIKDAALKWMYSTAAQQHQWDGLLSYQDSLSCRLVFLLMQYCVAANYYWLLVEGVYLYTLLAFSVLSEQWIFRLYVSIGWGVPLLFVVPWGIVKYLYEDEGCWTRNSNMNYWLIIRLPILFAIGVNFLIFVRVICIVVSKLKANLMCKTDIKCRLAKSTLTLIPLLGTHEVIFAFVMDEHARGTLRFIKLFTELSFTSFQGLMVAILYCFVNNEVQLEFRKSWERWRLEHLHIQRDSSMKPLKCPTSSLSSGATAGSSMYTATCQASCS
Text: as §1

GIP receptor = biological target: T3, GIP receptor (Homo sapiens, UniProt P48546); experiment: cAMP induction, firefly luciferase-based reporter assay in HEK293 cells co-transfected with GIP receptor; conditions: EC50 at GIP Receptor, Table 3, analogs of SEQ ID NO: 18 varying at position 3
T3 construct: expressed in transfected cells; host or cells: HEK293
T3 sequence (P48546 22-466): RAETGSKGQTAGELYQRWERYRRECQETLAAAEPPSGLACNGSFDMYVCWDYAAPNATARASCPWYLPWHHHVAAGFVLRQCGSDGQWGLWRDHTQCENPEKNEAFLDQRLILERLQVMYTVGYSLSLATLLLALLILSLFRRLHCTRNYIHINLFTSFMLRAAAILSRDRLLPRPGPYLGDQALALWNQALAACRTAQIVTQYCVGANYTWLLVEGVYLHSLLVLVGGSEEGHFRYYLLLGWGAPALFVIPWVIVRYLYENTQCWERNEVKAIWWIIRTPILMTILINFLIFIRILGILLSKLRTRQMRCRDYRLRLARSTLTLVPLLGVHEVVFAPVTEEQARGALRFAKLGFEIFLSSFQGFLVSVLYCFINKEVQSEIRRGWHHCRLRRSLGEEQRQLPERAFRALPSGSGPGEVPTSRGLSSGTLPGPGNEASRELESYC
Text: as §1

SMILES | EC50 at Glucagon Receptor (glucagon receptor) | EC50 (GLP-1 receptor) [pM] | EC50 (GIP receptor) [pM] | EC50 (glucagon receptor) [pM]
CCCCCCCCCCCCCCCC(=O)N[C@@H](CCC(=O)NCCCC[C@H](NC(=O)[C@H](CC(=O)O)NC(=O)[C@H](CO)NC(=O)[C@@H](NC(=O)[C@H](Cc1ccccc1)NC(=O)[C@@H](NC(=O)CNC(=O)[C@H](CC(C)C)NC(=O)C(C)(C)NC(=O)[C@@H](N)Cc1c[nH]cn1)[C@@H](C)O)[C@@H](C)O)C(=O)N[C@@H](CO)C(=O)N[C@@H](CCCCN)C(=O)N[C@@H](Cc1ccc(O)cc1)C(=O)N[C@@H](CC(C)C)C(=O)N[C@@H](CCC(=O)O)C(=O)N[C@@H](CCC(=O)O)C(=O)N[C@@H](CCCNC(=N)N)C(=O)N[C@@H](C)C(=O)N[C@@H](C)C(=O)N[C@@H](CCC(N)=O)C(=O)N[C@@H](CCC(=O)O)C(=O)N[C@@H](Cc1ccccc1)C(=O)N[C@H](C(=O)N[C@@H](CCC(N)=O)C(=O)N[C@@H](Cc1c[nH]c2ccccc12)C(=O)N[C@@H](CC(C)C)C(=O)N[C@@H](CC(C)C)C(=O)N[C@@H](CCC(=O)O)C(=O)NCC(=O)NCC(=O)N1CCC[C@H]1C(=O)N[C@@H](CO)C(=O)N[C@@H](CO)C(=O)NCC(=O)N[C@@H](C)C(=O)N1CCC[C@H]1C(=O)N1CCC[C@H]1C(=O)N1CCC[C@H]1C(=O)N[C@@H](CO)C(N)=O)C(C)C)C(=O)O [compound 32] (H-H[Aib]LGTFTSDK([γGlu-Palmitoyl])SKYLEERAAQEFVQWLLEGGPSSGAPPPS-NH2) | Not active | 388 | 730 | 
CCCCCCCCCCCCCCCC(=O)N[C@@H](CCC(=O)NCCCC[C@H](NC(=O)[C@H](CC(=O)O)NC(=O)[C@H](CO)NC(=O)[C@@H](NC(=O)[C@H](Cc1ccccc1)NC(=O)[C@@H](NC(=O)CNC(=O)[C@H](CCO)NC(=O)C(C)(C)NC(=O)[C@@H](N)Cc1c[nH]cn1)[C@@H](C)O)[C@@H](C)O)C(=O)N[C@@H](CO)C(=O)N[C@@H](CCCCN)C(=O)N[C@@H](Cc1ccc(O)cc1)C(=O)N[C@@H](CC(C)C)C(=O)N[C@@H](CCC(=O)O)C(=O)N[C@@H](CCC(=O)O)C(=O)N[C@@H](CCCNC(=N)N)C(=O)N[C@@H](C)C(=O)N[C@@H](C)C(=O)N[C@@H](CCC(N)=O)C(=O)N[C@@H](CCC(=O)O)C(=O)N[C@@H](Cc1ccccc1)C(=O)N[C@H](C(=O)N[C@@H](CCC(N)=O)C(=O)N[C@@H](Cc1c[nH]c2ccccc12)C(=O)N[C@@H](CC(C)C)C(=O)N[C@@H](CC(C)C)C(=O)N[C@@H](CCC(=O)O)C(=O)NCC(=O)NCC(=O)N1CCC[C@H]1C(=O)N[C@@H](CO)C(=O)N[C@@H](CO)C(=O)NCC(=O)N[C@@H](C)C(=O)N1CCC[C@H]1C(=O)N1CCC[C@H]1C(=O)N1CCC[C@H]1C(=O)N[C@@H](CO)C(N)=O)C(C)C)C(=O)O [compound 33] (H-H[Aib][hSer]GTFTSDK([γGlu-Palmitoyl])SKYLEERAAQEFVQWLLEGGPSSGAPPPS-NH2) |  | 2 | 4 | 15
CCCCCCCCCCCCCCCC(=O)N[C@@H](CCC(=O)NCCCC[C@H](NC(=O)[C@H](CC(=O)O)NC(=O)[C@H](CO)NC(=O)[C@@H](NC(=O)[C@H](Cc1ccccc1)NC(=O)[C@@H](NC(=O)CNC(=O)[C@H](CCCNC(C)=O)NC(=O)C(C)(C)NC(=O)[C@@H](N)Cc1c[nH]cn1)[C@@H](C)O)[C@@H](C)O)C(=O)N[C@@H](CO)C(=O)N[C@@H](CCCCN)C(=O)N[C@@H](Cc1ccc(O)cc1)C(=O)N[C@@H](CC(C)C)C(=O)N[C@@H](CCC(=O)O)C(=O)N[C@@H](CCC(=O)O)C(=O)N[C@@H](CCCNC(=N)N)C(=O)N[C@@H](C)C(=O)N[C@@H](C)C(=O)N[C@@H](CCC(N)=O)C(=O)N[C@@H](CCC(=O)O)C(=O)N[C@@H](Cc1ccccc1)C(=O)N[C@H](C(=O)N[C@@H](CCC(N)=O)C(=O)N[C@@H](Cc1c[nH]c2ccccc12)C(=O)N[C@@H](CC(C)C)C(=O)N[C@@H](CC(C)C)C(=O)N[C@@H](CCC(=O)O)C(=O)NCC(=O)NCC(=O)N1CCC[C@H]1C(=O)N[C@@H](CO)C(=O)N[C@@H](CO)C(=O)NCC(=O)N[C@@H](C)C(=O)N1CCC[C@H]1C(=O)N1CCC[C@H]1C(=O)N1CCC[C@H]1C(=O)N[C@@H](CO)C(N)=O)C(C)C)C(=O)O [compound 34] (H-H[Aib][Orn](Ac)GTFTSDK([γGlu-Palmitoyl])SKYLEERAAQEFVQWLLEGGPSSGAPPPS-NH2; N-terminus assumed) |  | 1 | 20 | 368
CCCCCCCCCCCCCCCC(=O)N[C@@H](CCC(=O)NCCCC[C@H](NC(=O)[C@H](CC(=O)O)NC(=O)[C@H](CO)NC(=O)[C@@H](NC(=O)[C@H](Cc1ccccc1)NC(=O)[C@@H](NC(=O)CNC(=O)[C@H](C)NC(=O)C(C)(C)NC(=O)[C@@H](N)Cc1c[nH]cn1)[C@@H](C)O)[C@@H](C)O)C(=O)N[C@@H](CO)C(=O)N[C@@H](CCCCN)C(=O)N[C@@H](Cc1ccc(O)cc1)C(=O)N[C@@H](CC(C)C)C(=O)N[C@@H](CCC(=O)O)C(=O)N[C@@H](CCC(=O)O)C(=O)N[C@@H](CCCNC(=N)N)C(=O)N[C@@H](C)C(=O)N[C@@H](C)C(=O)N[C@@H](CCC(N)=O)C(=O)N[C@@H](CCC(=O)O)C(=O)N[C@@H](Cc1ccccc1)C(=O)N[C@H](C(=O)N[C@@H](CCC(N)=O)C(=O)N[C@@H](Cc1c[nH]c2ccccc12)C(=O)N[C@@H](CC(C)C)C(=O)N[C@@H](CC(C)C)C(=O)N[C@@H](CCC(=O)O)C(=O)NCC(=O)NCC(=O)N1CCC[C@H]1C(=O)N[C@@H](CO)C(=O)N[C@@H](CO)C(=O)NCC(=O)N[C@@H](C)C(=O)N1CCC[C@H]1C(=O)N1CCC[C@H]1C(=O)N1CCC[C@H]1C(=O)N[C@@H](CO)C(N)=O)C(C)C)C(=O)O [compound 35] (H-H[Aib]AGTFTSDK([γGlu-Palmitoyl])SKYLEERAAQEFVQWLLEGGPSSGAPPPS-NH2; N-terminus assumed) |  | 2 | 6 | 73
CCCCCCCCCCCCCCCC(=O)N[C@@H](CCC(=O)NCCCC[C@H](NC(=O)[C@H](CC(=O)O)NC(=O)[C@H](CO)NC(=O)[C@@H](NC(=O)[C@H](Cc1ccccc1)NC(=O)[C@@H](NC(=O)CNC(=O)[C@H](CCNC(C)=O)NC(=O)C(C)(C)NC(=O)[C@@H](N)Cc1c[nH]cn1)[C@@H](C)O)[C@@H](C)O)C(=O)N[C@@H](CO)C(=O)N[C@@H](CCCCN)C(=O)N[C@@H](Cc1ccc(O)cc1)C(=O)N[C@@H](CC(C)C)C(=O)N[C@@H](CCC(=O)O)C(=O)N[C@@H](CCC(=O)O)C(=O)N[C@@H](CCCNC(=N)N)C(=O)N[C@@H](C)C(=O)N[C@@H](C)C(=O)N[C@@H](CCC(N)=O)C(=O)N[C@@H](CCC(=O)O)C(=O)N[C@@H](Cc1ccccc1)C(=O)N[C@H](C(=O)N[C@@H](CCC(N)=O)C(=O)N[C@@H](Cc1c[nH]c2ccccc12)C(=O)N[C@@H](CC(C)C)C(=O)N[C@@H](CC(C)C)C(=O)N[C@@H](CCC(=O)O)C(=O)NCC(=O)NCC(=O)N1CCC[C@H]1C(=O)N[C@@H](CO)C(=O)N[C@@H](CO)C(=O)NCC(=O)N[C@@H](C)C(=O)N1CCC[C@H]1C(=O)N1CCC[C@H]1C(=O)N1CCC[C@H]1C(=O)N[C@@H](CO)C(N)=O)C(C)C)C(=O)O [compound 36] (H-H[Aib][Dab](Ac)GTFTSDK([γGlu-Palmitoyl])SKYLEERAAQEFVQWLLEGGPSSGAPPPS-NH2; N-terminus assumed) |  | 3 | 14 | 9
CCCCCCCCCCCCCCCC(=O)N[C@@H](CCC(=O)NCCCC[C@H](NC(=O)[C@H](CC(=O)O)NC(=O)[C@H](CO)NC(=O)[C@@H](NC(=O)[C@H](Cc1ccccc1)NC(=O)[C@@H](NC(=O)CNC(=O)[C@@H](NC(=O)C(C)(C)NC(=O)[C@@H](N)Cc1c[nH]cn1)C(C)C)[C@@H](C)O)[C@@H](C)O)C(=O)N[C@@H](CO)C(=O)N[C@@H](CCCCN)C(=O)N[C@@H](Cc1ccc(O)cc1)C(=O)N[C@@H](CC(C)C)C(=O)N[C@@H](CCC(=O)O)C(=O)N[C@@H](CCC(=O)O)C(=O)N[C@@H](CCCNC(=N)N)C(=O)N[C@@H](C)C(=O)N[C@@H](C)C(=O)N[C@@H](CCC(N)=O)C(=O)N[C@@H](CCC(=O)O)C(=O)N[C@@H](Cc1ccccc1)C(=O)N[C@H](C(=O)N[C@@H](CCC(N)=O)C(=O)N[C@@H](Cc1c[nH]c2ccccc12)C(=O)N[C@@H](CC(C)C)C(=O)N[C@@H](CC(C)C)C(=O)N[C@@H](CCC(=O)O)C(=O)NCC(=O)NCC(=O)N1CCC[C@H]1C(=O)N[C@@H](CO)C(=O)N[C@@H](CO)C(=O)NCC(=O)N[C@@H](C)C(=O)N1CCC[C@H]1C(=O)N1CCC[C@H]1C(=O)N1CCC[C@H]1C(=O)N[C@@H](CO)C(N)=O)C(C)C)C(=O)O [compound 37] (H-H[Aib]VGTFTSDK([γGlu-Palmitoyl])SKYLEERAAQEFVQWLLEGGPSSGAPPPS-NH2; N-terminus assumed) |  | 2 | 2 | 29

— patent publication US9340600B2 (Indiana University Research and Technology Corporation, priority 2012, dated 2016)
